Like-named read-outs stand apart in the source and are kept apart here. Bridge positions count the residues as written; N and C are the ends. Square brackets hold non-standard residues; d marks the D form. Peptide text beside a SMILES is read from it. * marks the point of attachment. NH(CH2)2SS(DM1) = COc1cc2cc(c1Cl)N(C)C(=O)C[C@H](OC(=O)[C@H](C)N(C)C(=O)CCSSCCN*)[C@]1(C)O[C@H]1[C@H](C)[C@@H]1C[C@@](O)(NC(=O)O1)[C@H](OC)/C=C/C=C(\C)C2; X1 = COc1cc2cc(c1Cl)N(C)C(=O)C[C@H](OC(=O)[C@H](C)N(C)C(=O)CCS*)[C@]1(C)O[C@H]1[C@H](C)[C@@H]1C[C@@](O)(NC(=O)O1)[C@H](OC)/C=C/C=C(\C)C2; Mpa = O=C(O)CCS
System: NCI-H524 (ATCC) human lung cancer cells
Format: cell-based
Conditions: Table 15
Method: Conjugates were assessed in an in vitro assay evaluating inhibition of cell proliferation. NCI-H524 (ATCC) human lung cancer cells were plated in 96 well, V-bottomed plates (Costar) at a concentration of 5,000 cells/well and 24 hours later were treated with compound for 2 hours and further incubated 70 hours. Compound starting dose was 20 μM and three-fold serial dilutions were done for a total of ten points. After 2 hours of treatment, cells were spun down, the drug containing media was removed, and fresh complete medium was added and used to resuspend the cells, which were spun again. After removal of the wash media, the cells were resuspended in complete medium, then transferred into white walled, flat bottomed 96 well plates. […] Proliferation was measured using CellTiter Glo reagent using the standard protocol (Promega) and a Glomax multi+detection system (Promega). Percent proliferation inhibition was calculated using the following formula: % inhibition=(control-treatment)/control*100. Control is defined as vehicle alone. IC50 curves were generated using the nonlinear regression analysis (four parameter) with GraphPad Prism 6.
Conjugates of the present invention were assessed in an in vitro assay evaluating inhibition of cell proliferation. NCI-H524 (ATCC) human lung cancer cells were plated in 96 well, V-bottomed plates (Costar) at a concentration of 5,000 cells/well. 24 hours later, cells were treated with either conjugate for 2 hours and further incubated 70 hours, or for octreotide competition experiments, treated with 100 μM octreotide for 30 min, and then treated with conjugate for 2 hours, and further incubated for 70 hours. Conjugate starting dose was 20 μM and three fold serial dilutions were done for a total of ten points. After 2 hours of treatment, cells were spun down, the drug containing media was removed, and fresh complete medium was added and used to resuspend the cells, which were spun again. After removal of the wash media, the cells were resuspended in complete medium, then transferred into white walled, flat bottomed 96 well plates. […] Proliferation was measured using CellTiter Glo reagent using the standard protocol (Promega) and a Glomax multi+detection system (Promega). Percent proliferation inhibition was calculated using the following formula: % inhibition=(control-treatment)/control*100. Control is defined as vehicle alone. IC50 curves were generated using the nonlinear regression analysis (four parameter) with GraphPad Prism 6.
Conjugates of the present invention were tested for their activity dependence on the somatostatin receptor. Active agent Z in the conjugate was selected from auristatin, carbazitaxel, DM1, doxorubicin, platinum, SN-38 and vinblastine. Active agent Z is connected to octreotide with various linkers. Proliferation IC50 values of the conjugates were measured. Proliferation IC50 values of the conjugates without octreotide competition were also measured. The ratio of IC50 with octreotide competition and IC50 without octreotide competition is an indicator of whether activity is at least partially dependent on bind to the somatostatin receptor.

[1] = treated 2 hours, further incubated 70 hours, read-out: H524 IC50
[2] = read-out: H524 IC50+ 100 uM octreotide, 100 μM octreotide for 30 min, then conjugate 2 hours, 70 hours incubation

| SMILES | IC50 [1] [nM] | IC50 [2] [nM] |
| --- | --- | --- |
| COc1cc2cc(c1Cl)N(C)C(=O)C[C@H](OC(=O)[C@H](C)N(C)C(=O)CCSSCCNC(=O)[C@@H]1CSSC[C@H](NC(=O)[C@H](N)Cc3ccccc3)C(=O)N[C@@H](Cc3ccc(O)cc3)C(=O)N[C@H](Cc3c[nH]c4ccccc34)C(=O)N[C@@H](CCCCN)C(=O)N[C@@H]([C@@H](C)O)C(=O)N1)[C@]1(C)O[C@H]1[C@H](C)[C@@H]1C[C@@](O)(NC(=O)O1)[C@H](OC)/C=C/C=C(\C)C2 [Conjugate 59] (H-[dF]CY[dW]KTC-{NH(CH2)2SS(DM1)}; disulfide 2-7) | 24 | 170 |
| COc1cc2cc(c1Cl)N(C)C(=O)C[C@H](OC(=O)[C@H](C)N(C)C(=O)CCSSC[C@H](NC(=O)[C@@H]1CSSC[C@H](NC(=O)[C@H](N)Cc3ccccc3)C(=O)N[C@@H](Cc3ccc(O)cc3)C(=O)N[C@H](Cc3c[nH]c4ccccc34)C(=O)N[C@@H](CCCCN)C(=O)N[C@@H]([C@@H](C)O)C(=O)N1)C(=O)O)[C@]1(C)O[C@H]1[C@H](C)[C@@H]1C[C@@](O)(NC(=O)O1)[C@H](OC)/C=C/C=C(\C)C2 [Conjugate 61] | 89 | 274 |
| COc1cc2cc(c1Cl)N(C)C(=O)C[C@H](OC(=O)[C@H](C)N(C)C(=O)CCSSC[C@H](NC(=O)[C@@H]1CSSC[C@H](NC(=O)[C@H](N)Cc3ccccc3)C(=O)N[C@@H](Cc3ccc(O)cc3)C(=O)N[C@H](Cc3c[nH]c4ccccc34)C(=O)N[C@@H](CCCCN)C(=O)N[C@@H]([C@@H](C)O)C(=O)N1)C(=O)NC1CCCCC1)[C@]1(C)O[C@H]1[C@H](C)[C@@H]1C[C@@](O)(NC(=O)O1)[C@H](OC)/C=C/C=C(\C)C2 [Conjugate 63] | 44 | 168 |
| CCNC(=O)N[C@H](Cc1ccccc1)C(=O)N[C@H]1CSSC[C@@H](C(=O)N[C@H](C(=O)NCCSSCCC(=O)N(C)[C@@H](C)C(=O)O[C@H]2CC(=O)N(C)c3cc(cc(OC)c3Cl)C/C(C)=C/C=C/[C@@H](OC)[C@@]3(O)C[C@H](OC(=O)N3)[C@@H](C)[C@@H]3O[C@@]23C)[C@@H](C)O)NC(=O)[C@H]([C@@H](C)O)NC(=O)[C@H](CCCCN)NC(=O)[C@@H](Cc2c[nH]c3ccccc23)NC(=O)[C@H](Cc2ccc(O)cc2)NC1=O [Conjugate 65] | 30 | 229 |
| COc1cc2cc(c1Cl)N(C)C(=O)C[C@H](OC(=O)[C@H](C)N(C)C(=O)CCSSCCC(=O)N[C@H](Cc1ccccc1)C(=O)N[C@H]1CSSC[C@@H](C(=O)N[C@@H](Cc3c[nH]c4ccccc34)C(N)=O)NC(=O)[C@H](C(C)C)NC(=O)[C@H](CCCCN)NC(=O)[C@@H](Cc3c[nH]c4ccccc34)NC(=O)[C@H](Cc3ccc(O)cc3)NC1=O)[C@]1(C)O[C@H]1[C@H](C)[C@@H]1C[C@@](O)(NC(=O)O1)[C@H](OC)/C=C/C=C(\C)C2 [Conjugate 70] ([Mpa](X1)[dF]CY[dW]KVCW-NH2; disulfide 3-8) | 317 | 417 |
| COc1cc2cc(c1Cl)N(C)C(=O)C[C@H](OC(=O)[C@H](C)N(C)C(=O)CCSSCCC(=O)N[C@H](Cc1ccccc1)C(=O)N[C@H]1CSSC[C@@H](C(=O)N[C@H](C(=O)O)[C@@H](C)O)NC(=O)[C@H]([C@@H](C)O)NC(=O)[C@H](CCCCN)NC(=O)[C@@H](Cc3c[nH]c4ccccc34)NC(=O)[C@H](Cc3ccc(O)cc3)NC1=O)[C@]1(C)O[C@H]1[C@H](C)[C@@H]1C[C@@](O)(NC(=O)O1)[C@H](OC)/C=C/C=C(\C)C2 [Conjugate 74] | 549 | 562 |
| COc1cc2cc(c1Cl)N(C)C(=O)C[C@H](OC(=O)[C@H](C)N(C)C(=O)CCSSC(C)CCN[C@H](Cc1ccccc1)C(=O)N[C@H]1CSSC[C@@H](C(=O)N[C@H](CO)[C@@H](C)O)NC(=O)[C@H]([C@@H](C)O)NC(=O)[C@H](CCCCN)NC(=O)[C@@H](Cc3c[nH]c4ccccc34)NC(=O)[C@H](Cc3ccccc3)NC1=O)[C@]1(C)O[C@H]1[C@H](C)[C@@H]1C[C@@](O)(NC(=O)O1)[C@H](OC)/C=C/C=C(\C)C2 (some centres unmarked) [Conjugate 82] | 148 | 867 |
| COc1cc2cc(c1Cl)N(C)C(=O)C[C@H](OC(=O)[C@H](C)N(C)C(=O)CCSSCCCN1CCN(CC(=O)N[C@H](Cc3ccccc3)C(=O)N[C@H]3CSSC[C@@H](C(=O)N[C@H](CO)[C@@H](C)O)NC(=O)[C@H]([C@@H](C)O)NC(=O)[C@H](CCCCN)NC(=O)[C@@H](Cc4c[nH]c5ccccc45)NC(=O)[C@H](Cc4ccccc4)NC3=O)CC1)[C@]1(C)O[C@H]1[C@H](C)[C@@H]1C[C@@](O)(NC(=O)O1)[C@H](OC)/C=C/C=C(\C)C2 [Conjugate 86] | 386 | 553 |
| COc1cc2cc(c1Cl)N(C)C(=O)C[C@H](OC(=O)[C@H](C)N(C)C(=O)CCSSCCOCCOCCOCCOCCCN[C@H](Cc1ccccc1)C(=O)N[C@H]1CSSC[C@@H](C(=O)N[C@H](CO)[C@@H](C)O)NC(=O)[C@H]([C@@H](C)O)NC(=O)[C@H](CCCCN)NC(=O)[C@@H](Cc3c[nH]c4ccccc34)NC(=O)[C@H](Cc3ccccc3)NC1=O)[C@]1(C)O[C@H]1[C@H](C)[C@@H]1C[C@@](O)(NC(=O)O1)[C@H](OC)/C=C/C=C(\C)C2 [Conjugate 96] | 206 | 397 |
| COc1cc2cc(c1Cl)N(C)C(=O)C[C@H](OC(=O)[C@H](C)N(C)C(=O)CCSSCCOCCOCCOCCOCCC(=O)N[C@H](Cc1ccccc1)C(=O)N[C@H]1CSSC[C@@H](C(=O)N[C@H](CO)[C@@H](C)O)NC(=O)[C@H]([C@@H](C)O)NC(=O)[C@H](CCCCN)NC(=O)[C@@H](Cc3c[nH]c4ccccc34)NC(=O)[C@H](Cc3ccccc3)NC1=O)[C@]1(C)O[C@H]1[C@H](C)[C@@H]1C[C@@](O)(NC(=O)O1)[C@H](OC)/C=C/C=C(\C)C2 [Conjugate 98] | 690 | 1120 |
| COc1cc2cc(c1Cl)N(C)C(=O)C[C@H](OC(=O)[C@H](C)N(C)C(=O)CCSCCCN[C@H](Cc1ccccc1)C(=O)N[C@H]1CSSC[C@@H](C(=O)N[C@H](CO)[C@@H](C)O)NC(=O)[C@H]([C@@H](C)O)NC(=O)[C@H](CCCCN)NC(=O)[C@@H](Cc3c[nH]c4ccccc34)NC(=O)[C@H](Cc3ccccc3)NC1=O)[C@]1(C)O[C@H]1[C@H](C)[C@@H]1C[C@@](O)(NC(=O)O1)[C@H](OC)/C=C/C=C(\C)C2 [Conjugate 100] | 303 | 1060 |
| CCCCCCCCCCC(CCN[C@H](Cc1ccccc1)C(=O)N[C@H]1CSSC[C@@H](C(=O)N[C@@H](Cc2c[nH]c3ccccc23)C(N)=O)NC(=O)[C@H]([C@@H](C)O)NC(=O)[C@H](CCCCN)NC(=O)[C@@H](Cc2c[nH]c3ccccc23)NC(=O)[C@H](Cc2ccc(O)cc2)NC1=O)SSCCC(=O)N(C)[C@@H](C)C(=O)O[C@H]1CC(=O)N(C)c2cc(cc(OC)c2Cl)C/C(C)=C/C=C/[C@@H](OC)[C@@]2(O)C[C@H](OC(=O)N2)[C@@H](C)[C@@H]2O[C@@]12C (some centres unmarked) [Conjugate 102] | 335 | 579 |
| COc1cc2cc(c1Cl)N(C)C(=O)C[C@H](OC(=O)[C@H](C)N(C)C(=O)CCSC1CC(=O)N(CC3CCC(C(=O)N[C@H](Cc4ccccc4)C(=O)N[C@H]4CSSC[C@@H](C(=O)N[C@H](CO)[C@@H](C)O)NC(=O)[C@H]([C@@H](C)O)NC(=O)[C@H](CCCCN)NC(=O)[C@@H](Cc5c[nH]c6ccccc56)NC(=O)[C@H](Cc5ccccc5)NC4=O)CC3)C1=O)[C@]1(C)O[C@H]1[C@H](C)[C@@H]1C[C@@](O)(NC(=O)O1)[C@H](OC)/C=C/C=C(\C)C2 (some centres unmarked) [Conjugate 104] | 279 | 705 |
